{
  "source": "patent US20220323406A1",
  "about": "“METHODS AND COMPOSITIONS FOR DIFFERENTIATING STEM CELLS” (Massachusetts Institute of Technology, priority 2019, published 2022);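 as to Dose.FC.CTG (log2 fold change): compounds given at plating and again on day 3 over a 6-day differentiation from ENR+CV stem-cell-enriched precursors, ATP measured on day 6, plate median as control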;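 as to Dose.FC.CTG: compounds given at plating and again on day 3 over a 6-day differentiation from ENR+CV stem-cell-enriched precursors, ATP measured on day 6, plate median as control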;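 as to Z.CTG (standard z score): compounds given at plating and again on day 3 over a 6-day differentiation from ENR+CV stem-cell-enriched precursors, ATP measured on day 6, plate median as control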;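 as to Z.CTG: compounds given at plating and again on day 3 over a 6-day differentiation from ENR+CV stem-cell-enriched precursors, ATP measured on day 6, plate median as control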",
  "key": {"[1]": {"system": "ENR+CD organoids (ISC to Paneth cell differentiation)", "assay": "Primary screen: CCh-stimulated lysozyme secretion LYZ.S, 2.5-D 384-well ENR+CD organoid differentiation", "assay_type": "cell-based, mouse", "conditions": "primary screen", "text": "(§1) High-throughput screening."}, "[2]": {"system": "ENR+CD organoids (ISC to Paneth cell differentiation)", "assay": "Primary screen: basal (non-stimulated) lysozyme secretion LYZ.NS, 2.5-D 384-well ENR+CD organoid differentiation", "assay_type": "cell-based, mouse", "conditions": "primary screen; for Z.LYZ.NS: standard z score", "text": "as §1"}, "ENR+CD organoids": {"system": "ENR+CD organoids", "assay": "Primary screen: ATP (CellTiter-Glo 3D, CTG) cell number/viability, 2.5-D 384-well ENR+CD organoids", "conditions": "primary screen; for Z.CTG: standard z score"}, "[3]": {"conditions": "dose 0.08 uM, FC relative to plate median"}, "[4]": {"conditions": "dose 0.40 uM, FC relative to plate median"}, "[5]": {"conditions": "dose 2.00 uM, FC relative to plate median"}, "[6]": {"conditions": "dose 10.00 uM, FC relative to plate median"}, "[7]": {"conditions": "dose 0.08 uM, FC vs plate median"}, "[8]": {"conditions": "dose 0.40 uM, FC vs plate median"}, "[9]": {"conditions": "dose 2.00 uM, FC vs plate median"}, "[10]": {"conditions": "dose 10.00 uM, FC vs plate median"}},
  "data": [
    {"compound": "CCCN[C@H]1CCc2nc(N)sc2C1", "note": "[Pramipexole]", "values": [
      {"measurement": "Dose.FC.LYZ.S", "setting": "[1]; [3]", "result": 0.050, "unit": "log2 fold change"},
      {"measurement": "Dose.FC.LYZ.S", "setting": "[1]; [4]", "result": 0.123, "unit": "log2 fold change"},
      {"measurement": "Dose.FC.LYZ.S", "setting": "[1]; [5]", "result": 0.041, "unit": "log2 fold change"},
      {"measurement": "Dose.FC.LYZ.S", "setting": "[1]; [6]", "result": 0.071, "unit": "log2 fold change"},
      {"measurement": "Dose.FC.LYZ.NS", "setting": "[2]; [3]", "result": 0.057, "unit": "log2 fold change"},
      {"measurement": "Z.LYZ.NS", "setting": "[2]; dose 0.08 uM", "result": 0.495},
      {"measurement": "Dose.FC.LYZ.NS", "setting": "[2]; [4]", "result": 0.027, "unit": "log2 fold change"},
      {"measurement": "Z.LYZ.NS", "setting": "[2]; dose 0.40 uM", "result": 0.234},
      {"measurement": "Dose.FC.LYZ.NS", "setting": "[2]; [5]", "result": 0.027, "unit": "log2 fold change"},
      {"measurement": "Z.LYZ.NS", "setting": "[2]; dose 2.00 uM", "result": 0.239},
      {"measurement": "Dose.FC.LYZ.NS", "setting": "[2]; [6]", "result": 0.005, "unit": "log2 fold change"},
      {"measurement": "Z.LYZ.NS", "setting": "[2]; dose 10.00 uM", "result": 0.043},
      {"measurement": "Dose.FC.CTG", "setting": "ENR+CD organoids; [3]", "result": 0.109, "unit": "log2 fold change"},
      {"measurement": "Dose.FC.CTG", "setting": "ENR+CD organoids; [4]", "result": 0.182, "unit": "log2 fold change"},
      {"measurement": "Dose.FC.CTG", "setting": "ENR+CD organoids; [5]", "result": 0.026, "unit": "log2 fold change"},
      {"measurement": "Dose.FC.CTG", "setting": "ENR+CD organoids; [6]", "result": 0.231, "unit": "log2 fold change"}
    ]},
    {"compound": "Cc1ccc(NCCCc2ccccc2)c(N)c1", "note": "[JSH-23]", "values": [
      {"measurement": "Dose.FC.LYZ.S (log2 fold change)", "setting": "[1]; dose 0.08 uM", "result": 0.164},
      {"measurement": "Dose.FC.LYZ.S (log2 fold change)", "setting": "[1]; dose 0.40 uM", "result": 0.106},
      {"measurement": "Dose.FC.LYZ.S (log2 fold change)", "setting": "[1]; dose 2.00 uM", "result": 0.005},
      {"measurement": "Dose.FC.LYZ.S (log2 fold change)", "setting": "[1]; dose 10.00 uM", "result": "−0.026"},
      {"measurement": "Dose.FC.LYZ.NS (log2 fold change)", "setting": "[2]; dose 0.08 uM", "result": 0.054},
      {"measurement": "Z.LYZ.NS (standard z score)", "setting": "[2]; dose 0.08 uM", "result": 0.474},
      {"measurement": "Dose.FC.LYZ.NS (log2 fold change)", "setting": "[2]; dose 0.40 uM", "result": 0.079},
      {"measurement": "Z.LYZ.NS (standard z score)", "setting": "[2]; dose 0.40 uM", "result": 0.688},
      {"measurement": "Dose.FC.LYZ.NS (log2 fold change)", "setting": "[2]; dose 2.00 uM", "result": "−0.002"},
      {"measurement": "Z.LYZ.NS (standard z score)", "setting": "[2]; dose 2.00 uM", "result": "−0.017"},
      {"measurement": "Dose.FC.LYZ.NS (log2 fold change)", "setting": "[2]; dose 10.00 uM", "result": "−0.046"},
      {"measurement": "Z.LYZ.NS (standard z score)", "setting": "[2]; dose 10.00 uM", "result": "−0.399"},
      {"measurement": "Dose.FC.CTG (log2 fold change)", "setting": "ENR+CD organoids; dose 0.08 uM", "result": 0.193},
      {"measurement": "Z.CTG (standard z score)", "setting": "ENR+CD organoids; dose 0.08 uM", "result": 0.462},
      {"measurement": "Dose.FC.CTG (log2 fold change)", "setting": "ENR+CD organoids; dose 0.40 uM", "result": 0.230},
      {"measurement": "Z.CTG (standard z score)", "setting": "ENR+CD organoids; dose 0.40 uM", "result": 0.548},
      {"measurement": "Dose.FC.CTG (log2 fold change)", "setting": "ENR+CD organoids; dose 2.00 uM", "result": 0.074},
      {"measurement": "Z.CTG (standard z score)", "setting": "ENR+CD organoids; dose 2.00 uM", "result": 0.176},
      {"measurement": "Dose.FC.CTG (log2 fold change)", "setting": "ENR+CD organoids; dose 10.00 uM", "result": 0.046},
      {"measurement": "Z.CTG (standard z score)", "setting": "ENR+CD organoids; dose 10.00 uM", "result": 0.110}
    ]},
    {"compound": "Nc1nc(N)c2nc(-c3cccc(O)c3)c(-c3cccc(O)c3)nc2n1", "note": "[TG100-115]", "values": [
      {"measurement": "Dose.FC.LYZ.S", "setting": "[1]; dose 0.08 uM", "result": 0.073, "unit": "log2 fold change"},
      {"measurement": "Dose.FC.LYZ.S", "setting": "[1]; dose 0.40 uM", "result": 0.032, "unit": "log2 fold change"},
      {"measurement": "Dose.FC.LYZ.S", "setting": "[1]; dose 2.00 uM", "result": "−0.019", "unit": "log2 fold change"},
      {"measurement": "Dose.FC.LYZ.S", "setting": "[1]; dose 10.00 uM", "result": "−0.100", "unit": "log2 fold change"},
      {"measurement": "Dose.FC.LYZ.NS", "setting": "[2]; dose 0.08 uM", "result": 0.208, "unit": "log2 fold change"},
      {"measurement": "Z.LYZ.NS (standard z score)", "setting": "[2]; dose 0.08 uM", "result": 1.812},
      {"measurement": "Dose.FC.LYZ.NS", "setting": "[2]; dose 0.40 uM", "result": "−0.026", "unit": "log2 fold change"},
      {"measurement": "Z.LYZ.NS (standard z score)", "setting": "[2]; dose 0.40 uM", "result": "−0.223"},
      {"measurement": "Dose.FC.LYZ.NS", "setting": "[2]; dose 2.00 uM", "result": 0.003, "unit": "log2 fold change"},
      {"measurement": "Z.LYZ.NS (standard z score)", "setting": "[2]; dose 2.00 uM", "result": 0.025},
      {"measurement": "Dose.FC.LYZ.NS", "setting": "[2]; dose 10.00 uM", "result": "−0.026", "unit": "log2 fold change"},
      {"measurement": "Z.LYZ.NS (standard z score)", "setting": "[2]; dose 10.00 uM", "result": "−0.223"},
      {"measurement": "Dose.FC.CTG", "setting": "ENR+CD organoids; dose 0.08 uM", "result": "−0.256", "unit": "log2 fold change"},
      {"measurement": "Z.CTG (standard z score)", "setting": "ENR+CD organoids; dose 0.08 uM", "result": "−0.611"},
      {"measurement": "Dose.FC.CTG", "setting": "ENR+CD organoids; dose 0.40 uM", "result": 0.066, "unit": "log2 fold change"},
      {"measurement": "Z.CTG (standard z score)", "setting": "ENR+CD organoids; dose 0.40 uM", "result": 0.158},
      {"measurement": "Dose.FC.CTG", "setting": "ENR+CD organoids; dose 2.00 uM", "result": "−0.013", "unit": "log2 fold change"},
      {"measurement": "Z.CTG (standard z score)", "setting": "ENR+CD organoids; dose 2.00 uM", "result": "−0.031"},
      {"measurement": "Dose.FC.CTG", "setting": "ENR+CD organoids; dose 10.00 uM", "result": "−0.116", "unit": "log2 fold change"},
      {"measurement": "Z.CTG (standard z score)", "setting": "ENR+CD organoids; dose 10.00 uM", "result": "−0.277"}
    ]},
    {"compound": "OG-L002", "values": [
      {"measurement": "Dose.FC.LYZ.S", "setting": "[1]; [7]", "result": 0.023, "unit": "log2 fold change"},
      {"measurement": "Dose.FC.LYZ.S", "setting": "[1]; [8]", "result": 0.026, "unit": "log2 fold change"},
      {"measurement": "Dose.FC.LYZ.S", "setting": "[1]; [9]", "result": "−0.001", "unit": "log2 fold change"},
      {"measurement": "Dose.FC.LYZ.S", "setting": "[1]; [10]", "result": "−0.084", "unit": "log2 fold change"},
      {"measurement": "Z.LYZ.NS", "setting": "[2]; dose 0.08 uM", "result": "−0.001"},
      {"measurement": "Z.LYZ.NS", "setting": "[2]; dose 0.40 uM", "result": "−0.097"},
      {"measurement": "Z.LYZ.NS", "setting": "[2]; dose 2.00 uM", "result": 0.182},
      {"measurement": "Z.LYZ.NS", "setting": "[2]; dose 10.00 uM", "result": "−0.790"},
      {"measurement": "Dose.FC.LYZ.NS", "setting": "[2]; [7]", "result": 0.000, "unit": "log2 fold change"},
      {"measurement": "Dose.FC.LYZ.NS", "setting": "[2]; [8]", "result": "−0.011", "unit": "log2 fold change"},
      {"measurement": "Dose.FC.LYZ.NS", "setting": "[2]; [9]", "result": 0.021, "unit": "log2 fold change"},
      {"measurement": "Dose.FC.LYZ.NS", "setting": "[2]; [10]", "result": "−0.091", "unit": "log2 fold change"},
      {"measurement": "Z.CTG", "setting": "ENR+CD organoids; dose 0.08 uM", "result": 0.225},
      {"measurement": "Z.CTG", "setting": "ENR+CD organoids; dose 0.40 uM", "result": 0.329},
      {"measurement": "Z.CTG", "setting": "ENR+CD organoids; dose 2.00 uM", "result": 0.306},
      {"measurement": "Z.CTG", "setting": "ENR+CD organoids; dose 10.00 uM", "result": 0.225},
      {"measurement": "Dose.FC.CTG", "setting": "ENR+CD organoids; [7]", "result": 0.094, "unit": "log2 fold change"},
      {"measurement": "Dose.FC.CTG", "setting": "ENR+CD organoids; [8]", "result": 0.138, "unit": "log2 fold change"},
      {"measurement": "Dose.FC.CTG", "setting": "ENR+CD organoids; [9]", "result": 0.128, "unit": "log2 fold change"},
      {"measurement": "Dose.FC.CTG", "setting": "ENR+CD organoids; [10]", "result": 0.094, "unit": "log2 fold change"}
    ]}
  ]
}
